Test results from paper PMC3519854, “High Yield Production and Refolding of the Double-Knot Toxin, an Activator of TRPV1 Channels” (PLoS ONE, 2012).
Positions of bridges follow the written chain, without caps; N, C: chain ends. Residues, ends and D or L forms follow the SMILES beside them.

How the values were obtained:
rat TRPV1 = biological target: T1, rat TRPV1 (Rattus norvegicus, UniProt O35433); test: Two-electrode voltage clamp recording of TRPV1 activation in oocytes; assay type: cell-based; settings: for Relative potency as TRPV1 agonist: comparison of DkTx, K1 and K2, concentration-dependence in oocytes; for Hill coefficient for activation of TRPV1 / Reversibility of TRPV1 activation after removal of the toxin / Activation of TRPV1 channels (evoked currents): rat TRPV1 in Xenopus oocytes; for Hill coefficient for activation of TRPV1: concentration-dependence; for Activation of TRPV1 channels (evoked currents): holding voltage −60 mV, DkTx applied at 1 µM
T1 construct: expressed in transfected cells; host or cells: Xenopus laevis oocytes injected with cRNA (pGEM-HE vector)
T1 sequence (O35433 whole entry): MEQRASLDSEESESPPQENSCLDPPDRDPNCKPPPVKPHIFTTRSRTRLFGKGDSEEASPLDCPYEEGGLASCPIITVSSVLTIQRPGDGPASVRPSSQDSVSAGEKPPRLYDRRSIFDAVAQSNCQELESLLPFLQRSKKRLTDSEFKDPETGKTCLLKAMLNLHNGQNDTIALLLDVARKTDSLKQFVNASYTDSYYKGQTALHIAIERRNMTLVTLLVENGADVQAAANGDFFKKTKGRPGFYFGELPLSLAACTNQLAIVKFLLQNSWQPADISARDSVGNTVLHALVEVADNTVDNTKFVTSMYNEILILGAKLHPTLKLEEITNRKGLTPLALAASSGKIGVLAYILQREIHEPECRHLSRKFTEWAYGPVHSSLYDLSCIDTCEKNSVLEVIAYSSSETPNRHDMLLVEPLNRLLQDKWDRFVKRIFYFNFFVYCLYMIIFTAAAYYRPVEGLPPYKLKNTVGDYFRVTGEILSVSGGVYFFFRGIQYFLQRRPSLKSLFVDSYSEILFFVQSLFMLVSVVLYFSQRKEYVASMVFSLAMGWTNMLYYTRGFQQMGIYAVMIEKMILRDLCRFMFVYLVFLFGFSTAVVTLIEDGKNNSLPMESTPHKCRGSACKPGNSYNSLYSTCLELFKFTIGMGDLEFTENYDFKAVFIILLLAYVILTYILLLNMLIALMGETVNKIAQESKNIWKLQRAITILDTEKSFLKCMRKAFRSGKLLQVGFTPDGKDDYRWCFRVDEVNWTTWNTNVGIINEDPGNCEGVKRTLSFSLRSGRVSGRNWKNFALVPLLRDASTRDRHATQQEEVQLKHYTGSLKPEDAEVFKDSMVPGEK
Protocol: (§1) Oocytes were surgically removed from anesthetized Xenopus laevis frogs in accordance with protocol 1253-12 approved by the National Institute of Neurological Disorders and Stroke Animal Care and Use Committee. Oocytes were gently shaken for 60 min in a solution of 82.5 mM NaCl, 2.5 mM KCl, 1 mM MgCl2, 5 mM HEPES and 2 mg/mL collagenase. A rat TRPV1 construct (generously provided by D. Julius, UCSF) was cloned into the pGEM-HE vector, and used to generate cRNA. The cRNA was then injected into oocytes, which were then incubated for 1–3 days at 17°C in ND-96 solution (96 mM NaCl, 2 mM KCl, 5 mM HEPES, 1 mM MgCl2 and 50 µg/mL gentamycin, titrated to pH 7.6 with NaOH). TRPV1 activity was recorded under voltage clamp using a two-electrode voltage clamp (OC-725C; Warner Instruments) in a 150-µL recording chamber. The recorded data were filtered at 1 kHz and digitized at 5 kHz using a digidata analog/digital converter and pClamp software (Molecular Devices). Microelectrode resistances were 0.1–1 MΩ when filled with 3 M KCl. The external recording solution contained 115 mM NaCl, 2.5 mM KCl, 1.5 mM MgCl2 and 10 mM HEPES, titrated to pH 7.4 with NaOH. All experiments were performed at room temperature (∼22°C).
Figure 6 Activity of K1, K2 and DkTx on TRPV1 channels. (A) Synthetic K1, K2 and DkTx activate TRPV1 channels. Oocytes were held at −60 mV and toxins were added to the recording chamber. (B) Concentration-dependence for activation of TRPV1 by the toxins.
(§2) The functional activities of DkTx, K1 and K2 were also compared by recording their electrophysiological effects on TRPV1-expressing cells.

A657P mutant of TRPV1 [1] = test: Two-electrode voltage clamp recording on the A657P mutant of TRPV1; assay type: cell-based; settings: data not shown
Protocol: as §1, §2

[2] = Relative hydrophobicity by RP-HPLC elution of folded versus linear toxin; assay type: physicochemical; settings: RP-HPLC C18, acetonitrile/water gradient with 0.1% TFA, qualitative
Protocol: Figure 3 Purification and activity of the DkTx folding product. (A) Purification of linear DkTx. Cleavage of the fusion protein and reduction of the disulfide bond were accomplished using hydroxylamine and DTT, respectively, as described in methods. (B) Linear DkTx was folded in 1 M NH4OAc (pH 8.0) buffer containing 1 M GdnHCl, 1 mM EDTA, 2.5 mM GSH and 0.25 mM GSSG for 5 days at 4°C. The toxins were purified using a linear gradient of 29–44% solvent B for 15 min at a flow rate of 14 ml/min, where solvent A was water containing 0.1% TFA and solvent B was acetonitrile containing 0.1% TFA. (C) Fraction 5 activated TRPV1 expressed in oocytes. Holding voltage was −60 mV.
Figure 4 HPLC profiles of DkTx during the folding reaction. The peptides were separated using a linear gradient of 5–65% solvent B for 30 min at a flow rate of 1 ml/min, where solvent A was water containing 0.1% TFA and solvent B was acetonitrile containing 0.1% TFA. (A) Oxidative folding of DkTx in redox buffer was monitored by HPLC. Asterisks indicate correctly folded DkTx. (B) HPLC chromatogram of purified DkTx. Dashed and solid arrows indicate the minor and major forms of DkTx, respectively. […]
Figure 5 Folding kinetics of K1, K2 and DkTx. […] Quantification of the folding specifies was accomplished using HPLC. The correctly folded form (%) was determined based on the areas of the HPLC peaks. […]

A657P mutant of TRPV1 [3] = settings: cited from earlier work
Source text: as §2

Row | Molecule | Relative potency as TRPV1 agonist (rat TRPV1) | Hill coefficient for activation of TRPV1 (rat TRPV1) | Reversibility of TRPV1 activation after removal of the toxin (rat TRPV1; −60 mV) | Activation of the A657P mutant of TRPV1 (A657P mutant of TRPV1 [1]) | Hydrophobicity of the correctly folded form relative to the linear form [2] | Block of DkTx-evoked TRPV1 currents (rat TRPV1; currents evoked by 1 µM DkTx in oocytes, −60 mV) | Activation of TRPV1 channels (evoked currents) (rat TRPV1) | Activation of TRPV1 channels (evoked currents) (rat TRPV1; listed as fraction 5) | Sensitivity of the A657P mutant of TRPV1 to toxin (A657P mutant of TRPV1 [3])
1 | CC[C@H](C)[C@@H]1NC(=O)[C@H](Cc2ccccc2)NC(=O)[C@H](C)NC(=O)[C@H](CC(C)C)NC(=O)[C@@H]2CCCN2C(=O)[C@@H]2CSSC[C@@H]3NC(=O)[C@H](C(C)C)NC(=O)[C@H](CCC(=O)O)NC(=O)CNC(=O)[C@H](CCC(=O)O)NC(=O)[C@H](CCCCN)NC(=O)[C@H](C)NC(=O)[C@@H](NC(=O)[C@@H](N)CC(N)=O)CSSC[C@H](NC(=O)[C@H](CSSC[C@@H](C(=O)N[C@@H](CCC(=O)O)C(=O)N[C@@H](CCCCN)C(=O)N[C@@H](Cc4ccc(O)cc4)C(=O)N[C@@H](CCCNC(=N)N)C(=O)O)NC(=O)[C@H](Cc4ccc(O)cc4)NC(=O)[C@@H]4CCCN4C1=O)NC(=O)[C@H](CCCCN)NC(=O)[C@H](CO)NC(=O)CNC(=O)[C@H](Cc1c[nH]c4ccccc14)NC(=O)CNC3=O)C(=O)N[C@@H](Cc1c[nH]cn1)C(=O)NCC(=O)N[C@@H](CC(C)C)C(=O)N[C@@H](CC(=O)O)C(=O)N2 [K2] (H-NCAKEGEVCGWGSKCCHGLDCPLAFIPYCEKYR-OH; disulfide 2-16, 9-21, 15-29 (inferred); N-terminus and C-terminus assumed) | more active than K1 | about 4 | readily reversible | neither toxin activated the channel | more hydrophobic than the linear or misfolded forms | – | – | – | –
2 | N.N.N.N.N.N.N.N.N.N.N.N.N.N.[Cl-].[Cl-].[Cl-].[Cl-].[Cl-].[Cl-].[O-2].[O-2].[Ru+3].[Ru+3].[Ru+4] [ruthenium red, reference compound] | – | – | – | – | – | blocked | – | – | –
3 | GDCAKEGEVCSWGKKCCDLDNFYCPMEFIPHCKKYKPYVPVTTNCAKEGEVCGWGSKCCHGLDCPLAFIPYCEKYR (disulfide 3-17, 10-24, 16-32, 45-59, 52-64, 58-72 (inferred)) [DkTx, double-knot toxin] | most potent TRPV1 agonist among the three toxins | ~1 | decayed slowly | – | more hydrophobic than the linear form | – | evoked large currents | robustly activated TRPV1 channels | insensitive
